In the supplement of paper PMC13380429:

Tests used:
Details in all cases: 72 h
U2OS [1] = experiment: drug sensitivity score (DSS) for viability; higher = more toxic; extreme values may be limits of the assay
Vero E6 [2] = experiment: as above
Caco-2 [3] = experiment: as above
HepG2 [4] = experiment: as above
Calu-3 [5] = experiment: as above
U2OS [6] = experiment: relative viability EC50 (midpoint between 100% and the lowest measured viability); higher = less toxic
Vero E6 [7] = experiment: as above
Caco-2 [8] = experiment: as above
HepG2 [9] = experiment: as above
Calu-3 [10] = experiment: as above
U2OS [11] = experiment: cell viability relative to DMSO; higher = less toxic
Vero E6 [12] = experiment: as above
Caco-2 [13] = experiment: as above
HepG2 [14] = experiment: as above
Calu-3 [15] = experiment: as above

SMILES	drug sensitivity score (U2OS [1])	drug sensitivity score (Vero E6 [2])	drug sensitivity score (Caco-2 [3])	drug sensitivity score (HepG2 [4])	drug sensitivity score (Calu-3 [5])	relative viability EC50 (U2OS [6]) [µM]	relative viability EC50 (Vero E6 [7]) [µM]	relative viability EC50 (Caco-2 [8]) [µM]	relative viability EC50 (HepG2 [9]) [µM]	relative viability EC50 (Calu-3 [10]) [µM]	cell viability (U2OS [11]; 1 nM) [%]	cell viability (U2OS [11]; 10 nM) [%]	cell viability (U2OS [11]; 100 nM) [%]	cell viability (U2OS [11]; 1000 nM) [%]	cell viability (U2OS [11]; 10000 nM) [%]	cell viability (Vero E6 [12]; 1 nM) [%]	cell viability (Vero E6 [12]; 10 nM) [%]	cell viability (Vero E6 [12]; 100 nM) [%]	cell viability (Vero E6 [12]; 1000 nM) [%]	cell viability (Vero E6 [12]; 10000 nM) [%]	cell viability (Caco-2 [13]; 1 nM) [%]	cell viability (Caco-2 [13]; 10 nM) [%]	cell viability (Caco-2 [13]; 100 nM) [%]	cell viability (Caco-2 [13]; 1000 nM) [%]	cell viability (Caco-2 [13]; 10000 nM) [%]	cell viability (HepG2 [14]; 1 nM) [%]	cell viability (HepG2 [14]; 10 nM) [%]	cell viability (HepG2 [14]; 100 nM) [%]	cell viability (HepG2 [14]; 1000 nM) [%]	cell viability (HepG2 [14]; 10000 nM) [%]	cell viability (Calu-3 [15]; 1 nM) [%]	cell viability (Calu-3 [15]; 10 nM) [%]	cell viability (Calu-3 [15]; 100 nM) [%]	cell viability (Calu-3 [15]; 1000 nM) [%]	cell viability (Calu-3 [15]; 10000 nM) [%]
COc1ccccc1C(=O)Nc1cc2c(cc1N1CCCC1)n(C)c(=O)n2C [PFI-4]	0	0	1.6	0	0	> 10	> 10	> 10	> 10	> 10	101	101	97.6	99.4	92	99.2	102	96.2	92.2	89	104	99.8	92.7	89.1	77.6	92.7	93.1	94.1	96.5	91.5	93.7	104	94.7	106	98
CCN1C(C)(C)CC(Oc2ccc(C(=O)Nc3ccc(NC(=O)Nc4cc(C(C)(C)C)on4)cc3)nc2)CC1(C)C [AC-710]	0	0	0	0	0.2	> 10	> 10	> 10	> 10	> 10	98.9	97	98.9	99.9	94.3	101	106	99.9	104	96.8	100	89.4	100	94.4	88.2	100	97.7	94.1	105	87.3	108	105	97.4	89.4	94
Cc1ccc(C23CNCC2C3)cc1 (stereo not drawn) [bicifadine]	0	0	0	0	0	> 10	> 10	> 10	> 10	> 10	96.8	98.9	103	102	96.4	97.7	93.8	98.8	96.3	99.8	103	99	106	110	97.4	99.7	88.8	100	96.3	94.7	115	96	104	105	103
CCC(=O)OCC(=O)[C@@]1(OC(=O)CC)[C@H](C)C[C@H]2[C@H]3[C@H]([C@@H](O)C[C@@]21C)[C@@]1(C)C=CC(=O)C=C1C[C@H]3Cl [alclometasone-dipropionate]	0	0	0	0	0	> 10	> 10	> 10	> 10	> 10	97.2	97	91.7	96.6	90.8	108	101	104	98	106	97.3	101	99.7	94.7	96.8	103	101	112	90.4	91.1	96	88.1	90.2	95.6	97.6
Cc1coc2c1C(=O)C(=O)c1c-2ccc2c(C)cccc12 [tanshinone-I]	0	0	0.7	0	0	> 10	> 10	> 10	> 10	> 10	97.8	97.8	103	93.9	95.2	91.9	94.9	90.7	96.5	104	93.1	97.4	104	90.7	86.2	91	104	89.4	111	105	93.8	91.7	104	110	100
Nc1n[n+]([O-])c2ccccc2[n+]1[O-] [tirapazamine]	0	0	0	2.8	0	> 10	> 10	> 10		> 10	100	98.9	99.1	97.8	99	101	97.6	101	95.6	90.7	99.9	102	92.3	94.8	90.4	92.3	91.1	93.2	88.9	63.9	104	103	107	97.8	102
CC(C)(C)c1ccc(CN2CCN(C(c3ccccc3)c3ccc(Cl)cc3)CC2)cc1 (stereo not drawn) [buclizine]	0	0	0.2	2.2	0	> 10	> 10	> 10		> 10	96.7	97.6	96.8	98.9	90.8	103	102	101	98.2	95.9	108	98.3	100	98.3	87.5	95.7	106	99.6	91.3	73.5	95.1	98.3	94.6	87.1	92.1
